Measured values taken from ChEMBL document CHEMBL4229568, “Discovery of natural flavonoids as activators of Nrf2-mediated defense system: Structure-activity relationship and inhibition of intracellular oxidative insults” (Bioorg Med Chem, 2018).
Activity calls are given as the source filed them. The rule behind the calls is not given here.

Key:
[1] = biological target: T1, Nuclear factor erythroid 2-related factor 2 (Homo sapiens) (UniProt Q16236); assay: Activation of Nrf2 in human BEAS2B cells assessed as upregulation of Nrf2 protein expression at 0.31 to 20 uM after 18 hrs by immunoblot analysis; format: cell-based
T1 sequence (whole entry): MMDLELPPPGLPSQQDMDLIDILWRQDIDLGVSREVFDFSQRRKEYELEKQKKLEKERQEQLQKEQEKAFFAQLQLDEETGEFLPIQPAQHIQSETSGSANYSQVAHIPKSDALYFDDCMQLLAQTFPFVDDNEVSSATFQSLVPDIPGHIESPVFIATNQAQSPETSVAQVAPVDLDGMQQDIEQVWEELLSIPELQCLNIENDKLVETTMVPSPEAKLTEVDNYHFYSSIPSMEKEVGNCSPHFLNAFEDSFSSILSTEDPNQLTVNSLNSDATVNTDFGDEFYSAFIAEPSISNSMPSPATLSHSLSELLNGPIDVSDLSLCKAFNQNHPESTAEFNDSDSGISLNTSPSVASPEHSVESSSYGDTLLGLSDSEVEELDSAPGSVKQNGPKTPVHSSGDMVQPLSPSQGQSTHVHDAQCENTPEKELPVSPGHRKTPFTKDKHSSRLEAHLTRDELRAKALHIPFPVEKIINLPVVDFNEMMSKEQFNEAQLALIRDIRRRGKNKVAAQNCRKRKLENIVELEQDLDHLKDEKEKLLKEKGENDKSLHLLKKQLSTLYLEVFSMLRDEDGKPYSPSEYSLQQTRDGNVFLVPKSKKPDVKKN

[2] = biological target: T1, Nuclear factor erythroid 2-related factor 2 (Homo sapiens); assay: Activation of Nrf2 in human MDA-MB-231 cells assessed as upregulation of NQO1 protein expression after 16 hrs by immunoblot analysis; format: cell-based
[3] = biological target: T1, Nuclear factor erythroid 2-related factor 2 (Homo sapiens); assay: Activation of Nrf2 in human BEAS2B cells assessed as upregulation of Nrf2 protein expression at 50 to 100 uM after 18 hrs by immunoblot analysis; format: cell-based
BEAS-2B [4] = assay: Effect on reactive oxygen species production in human BEAS2B cells at 6.25 uM treated for 8 hrs; format: ADME, cell-based
[5] = biological target: T1, Nuclear factor erythroid 2-related factor 2 (Homo sapiens); assay: Activation of Nrf2 in human BEAS2B cells assessed as upregulation of NQO1 protein expression at 6.25 uM pretreated for 1 hr followed by co-treatment with MEK1/2 inhibitor PD98059 for 18 hrs by immunoblot analysis; format: cell-based
[6] = biological target: T2, Nuclear factor erythroid 2-related factor 2 (Mus musculus) (UniProt Q60795); assay: Activation of Nrf2 in mouse Heap1c1c7 cells assessed as induction of NAD(P)H:quinone reductase activity at 6.25 uM pretreated for 1 hr followed by co-treatment with PI3K inhibitor LY294002 for 24 hrs; format: cell-based
T2 sequence (whole entry): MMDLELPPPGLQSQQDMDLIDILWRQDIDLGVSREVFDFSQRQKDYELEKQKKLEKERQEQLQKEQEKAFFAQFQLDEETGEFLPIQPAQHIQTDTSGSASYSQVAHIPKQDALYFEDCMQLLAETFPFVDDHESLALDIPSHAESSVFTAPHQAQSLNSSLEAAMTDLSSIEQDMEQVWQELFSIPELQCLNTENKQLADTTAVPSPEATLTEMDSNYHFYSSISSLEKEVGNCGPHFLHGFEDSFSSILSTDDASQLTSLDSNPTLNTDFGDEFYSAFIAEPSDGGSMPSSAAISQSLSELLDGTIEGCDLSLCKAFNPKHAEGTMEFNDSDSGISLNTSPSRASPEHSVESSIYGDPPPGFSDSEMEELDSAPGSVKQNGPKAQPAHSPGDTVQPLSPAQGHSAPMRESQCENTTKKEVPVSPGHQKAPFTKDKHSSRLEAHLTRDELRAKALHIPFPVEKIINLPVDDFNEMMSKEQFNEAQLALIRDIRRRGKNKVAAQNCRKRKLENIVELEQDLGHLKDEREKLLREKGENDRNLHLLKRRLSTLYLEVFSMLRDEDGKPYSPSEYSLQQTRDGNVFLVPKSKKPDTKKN

[7] = biological target: T1, Nuclear factor erythroid 2-related factor 2 (Homo sapiens); assay: Activation of Nrf2 in human BEAS2B cells assessed as suppression of As(+3)-induced overproduction of reactive oxygen species at 6.25 uM pretreated for 8 hrs followed by As(+3) challenge and measured after 10 hrs; format: cell-based
[8] = biological target: T1, Nuclear factor erythroid 2-related factor 2 (Homo sapiens); assay: Activation of Nrf2 in human BEAS2B cells assessed as upregulation of gamma-GCS protein expression at 6.25 uM after 8 to 24 hrs by immunoblot analysis; format: cell-based
BEAS-2B [9] = assay: Cytotoxicity against human BEAS2B cells assessed as decrease in cell viability up to 25 uM after 48 hrs by MTT assay; format: cell-based
[10] = biological target: T1, Nuclear factor erythroid 2-related factor 2 (Homo sapiens); assay: Activation of Nrf2 in human BEAS2B cells assessed as upregulation of NQO1 protein expression at 3.12 to 25 uM after 12 hrs by immunoblot analysis; format: cell-based
[11] = biological target: T1, Nuclear factor erythroid 2-related factor 2 (Homo sapiens); assay: Activation of Nrf2 in human BEAS2B cells assessed as upregulation of NQO1 protein expression at 50 to 100 uM after 18 hrs by immunoblot analysis; format: cell-based
BEAS-2B [12] = assay: Downregulation of Keap1 protein levels in human BEAS2B cells at 50 to 100 uM after 18 hrs by immunoblot analysis; format: functional, cell-based
BEAS-2B [13] = assay: Cytoprotective activity in human BEAS2B cells assessed as decrease in As(+3)-induced cell apoptosis at 6.25 uM preincubated for 8 hrs followed by As(+3) challenge and measured after 24 hrs by annexin V-FITC/propidium iodide staining-based flow cytometric method; format: functional
[14] = biological target: T2, Nuclear factor erythroid 2-related factor 2 (Mus musculus); assay: Activation of Nrf2 in mouse Heap1c1c7 cells assessed as induction of NAD(P)H:quinone reductase activity at 6.25 uM pretreated for 1 hr followed by co-treatment with p38 MAPK inhibitor SB203580 for 24 hrs; format: cell-based
[15] = biological target: T1, Nuclear factor erythroid 2-related factor 2 (Homo sapiens); assay: Activation of Nrf2 in human BEAS2B cells assessed as upregulation of Nrf2 protein expression at 3.12 to 25 uM after 12 hrs by immunoblot analysis; format: cell-based
MDA-MB-231 = assay: Cytotoxicity against human MDA-MB-231 cells assessed as decrease in cell viability at 3.12 to 100 uM after 24 hrs by MTT assay; format: cell-based; conditions: mda-mb-231, 24 h
[16] = biological target: T1, Nuclear factor erythroid 2-related factor 2 (Homo sapiens); assay: Stabilization of Nrf2 in human BEAS2B cells assessed as protein half life at 6.25 uM preincubated for 8 hrs followed by CHX addition and measured over 10 to 40 mins by immunoblot analysis (reference value: 14.7 min); format: cell-based
BEAS-2B [17] = assay: Cytoprotective activity in human BEAS2B cells assessed as decrease in As(+3)-induced cell death at 3.12 to 25 uM preincubated for 8 hrs followed by As(+3) challenge and measured after 24 hrs by MTT assay; format: functional, cell-based
BEAS-2B [18] = assay: Cytoprotective activity in human BEAS2B cells transfected with Nrf2-SiRNA assessed as decrease in As(+3)-induced cell death at 6.25 uM preincubated for 8 hrs followed by As(+3) challenge and measured after 24 hrs by MTT assay; format: functional, cell-based
[19] = biological target: T1, Nuclear factor erythroid 2-related factor 2 (Homo sapiens); assay: Activation of Nrf2 in human BEAS2B cells assessed as upregulation of gamma-GCS protein expression at 6.25 uM after 48 hrs by immunoblot analysis; format: cell-based
BEAS-2B [20] = assay: Effect on Keap1 protein levels in human BEAS2B cells at <= 20 uM after 18 hrs by immunoblot analysis; format: functional, cell-based

Activity [1]: Dose-dependent effect
Activity [2]: Dose-dependent effect
Activity [3]: inactive
Activity [5]: inactive
Activity [6]: inactive
Activity [7]: Active
Activity [8]: Active
Activity [10]: Active
Activity [11]: inactive
Activity [14]: inactive
Activity [15]: Active
T1/2 [16]: 27.6 min
Activity [19]: inactive
Structure (SMILES): COc1ccc(-c2coc3cc(OC)cc(O)c3c2=O)cc1 [4',7-DIMETHOXY-5-HYDROXYGENISTEIN]
Activity (BEAS-2B [4]): Non-Toxic
Activity (BEAS-2B [9]): Non-Toxic
Activity (BEAS-2B [12]): Active
Activity (BEAS-2B [13]): Active
Activity (MDA-MB-231): Non-Toxic
Activity (BEAS-2B [17]): Active
Activity (BEAS-2B [18]): inactive
Activity (BEAS-2B [20]): inactive
